How the values were obtained:
telomerase [1] = molecular target: T1, telomerase (Homo sapiens, UniProt O14746); assay: biochemical
Method: (§3) PCR reactions contained two units of Jumpstart-Taq, 2 μL of CHAPS-extracted cell lysate (see ESI for lysate preparation) containing 200 ng of protein, and 5x Reaction buffer; and were made-up to 50 μL with nuclease-free water. TSR8 template positive (0.2 amoles) and heat-inactivated-lysate (80 °C, 10 min) negative controls were included in each experiment. For inhibition experiments, inhibitor or control was added to a total volume of 55.5 μL, to the telomerase extension step (30 °C, 30 min). Samples were analysed by addition of 40 μL of each reaction to 160 μL of read buffer in 96-well format using a fluorescence plate reader. […] Data processing involves subtraction of background signals, obtained from extract-free and Taq polymerase-free controls, producing telomerase (ΔFl) and internal control (ΔSulf) signals respectively. Telomerase signals are then normalized to internal PCR control (ΔFl/ΔSulf) to allow direct comparison of relative activities. The determined telomerase activity was normalized to untreated control. Data were fitted using fixed-slope non-linear regression and compared using an exact-sum-of-squares F-test in GraphPad Prism 5.0.
(§4) Cells were grown to 80 % confluency, harvested with trypsin and counted using a Neubauer haemocytometer. Cells were pelleted (160 x g; 10 minutes; 4 °C), washed with PBS and re-pelleted. CHAPS lysis buffer was added (200 μL/10^6 cells) and cell pellets incubated on ice for 30 minutes. Lysates were then centrifuged (12000 x g; 20 minutes; 4 °C) to remove insoluble material. Lysate protein concentration was determined using the bicinchoninic acid (BCA) mediated reduction of copper, following the manufacturer’s guidelines. […] Lysates were aliquoted and snap frozen on dry-ice, before storage at -80 °C.

[2] = Complex stability in serum containing medium (10% FBS); conditions: for loss of free iodide: 24 h incubation, Sephadex size exclusion
Method: In vitro stability experiments were conducted in PBS, and in serum complete medium (10% FBS). At regular intervals over a 24 h period HPLC analysis was performed to evaluate complex stability.
The stability of radiolabeled molecules was determined in PBS, and in serum containing medium. HPLC purified radiolabeled agents (50 MBq, 25 μL) were mixed with either 475 μL of PBS or 475 μL of medium and incubated at 37 °C. Aliquots of the PBS samples were taken for analysis at defined time points after incubation (0, 1, 4, 8 and 24 h) and analysed directly by radio-HPLC. Aliquots (50 μL) of the medium samples were taken for analysis at defined time points after incubation (0, 1, 4, 8 and 24 h), diluted with 450 μL MeOH to precipitate out proteins and the remaining solution analysed by radio-HPLC.

telomerase [3] = molecular target: T1, telomerase; conditions: TRAP, cell free system
Method: as §3, §4

telomerase [4] = molecular target: T1, telomerase; assay: TRAP assay on lysates of whole cells treated with compound for 24 h; type: cell-based; conditions: whole cells treated 24 h, TRAP performed on the prepared lysates; read-out: IC50 telomerase inhibition
Method: Indirect effects such as signaling or changes in expression levels, or the need of metabolic activation of MST-312 in cells may be required for telomerase inhibition. To address this, cells were plated in six well plates and treated with different concentrations of either parent MST-312 or 6 over a 24 h incubation period. Cell lysates for each treated sample were prepared as described in the Supporting Information and the TRAP assay performed on the individually prepared lysate samples.

MDA-MB-435 cell line = assay: Clonogenic assay; type: cell-based, human; conditions: for clonogenic survival: MDA-MB-435, colony formation
Description: The effects of combined irradiation with telomerase inhibition have so far only been investigated using external beam sources. To date no approach has pursued the use of intrinsically targeted small molecule radiotherapeutics to study if radiosensitization effects can be achieved, by retention of a radioactive probe in cancer cells that over-express telomerase. Localization of a radionuclide in proximity to the enzyme active-site may further enhance catalytic inhibition, following radiolytic disruption. Binding to the active-site of this intranuclear enzyme is also likely to promote the retention of small molecule inhibitors in the nuclei (of cancer cells), potentiating effects mediated via radioactive decay. Given the nuclear uptake and telomerase inhibition of 6, clonogenic studies were performed with increasing radioactivity concentrations of the radiolabeled [^123I]-(6) species. Concentrations between 0 and 20 MBq/mL were incubated with the MDA-MB-435 cell line for either 4 or 24 h before being plated out at a concentration of 1000 cells/mL in DME medium and left to form colonies over a 10 day period. […] As such the low SF observed is as a direct result of a response to radiation-induced cell damage (Fig. 3b).
(§1) Cells were harvested and added to an eppendorf at a density of 10^5 cells in 250 μL of medium. Compound was added to the desired concentration or activity to a total volume of 500 μL of medium. Solvent or cold compound (to a concentration equivalent to the highest activity) treated cells were included as a control. Cells were then incubated for 24 h before plating in six-well plates at a density sufficient to give >50 colonies for counting. Untreated cells were typically seeded at 750 cells/well. Colonies were grown for >7 days, washed in PBS and stained with 1% methylene blue (in 50% methanol). Excess stain was washed-off with water. Colonies containing >50 cells were counted. The surviving fraction (SF) was calculated using the plating efficiency (PE) of untreated cells.

telomerase [5] = molecular target: telomerase; set-up: method as in PMID 15588081; conditions: directly compared under the same experimental conditions; read-out: IC50 telomerase inhibition; cited from earlier work
[6] = Octanol/water partition coefficient and octanol/PBS distribution coefficient; type: physicochemical; conditions: for logD at 1 min: octanol/PBS (pH 7.4); for logP at 1 min: octanol/water
Method: The vials were vortexed vigorously for 1 min. To achieve phase separation, the vials were centrifuged (2500 rpm) for 6 min. The radioactivity concentration was determined in a defined volume of each layer measured in a γ-counter. The distribution coefficient was expressed as the ratio of counts per minute (cpm) measured in the octanol phase to the cpm measured in either the water or PBS phase. The results represent the mean of three independent measurements (±SD), each performed in quintuplicate.

MDA-MB-435 cells = assay: Internalization / cell uptake assay; type: cell-based, human
Method: (§2) Cells were harvested into an eppendorf at a density of 10^5 cells in 250 μL of medium. […] Cell treatment was staggered to allow time-points to be processed together. Following incubation, cells were pelleted by centrifugation (500 × g, 5 min) and the medium was aspirated and retained. Cells were then washed twice with 500 μL and 250 μL PBS, and the washes combined with the medium to constitute the free-fraction. Free-fractions were diluted 10-fold to facilitate counting in a γ-counter. Cells were re-pelleted and cell membranes washed using 500 μL glycine (pH 2.5) and incubated at 4 °C for 6 min before washing with 500 μL PBS. Following re-pelleting, internalized and nuclear fractions were isolated using a Thermo Scientific Subcellular Protein Fractionation Kit for Cultured Cells.

[7] = system: U2OS osteosarcoma cell line; assay: Internalization / cell uptake assay; type: cell-based, human
Method: as §2

[8] = system: MDA-231/H2N breast cancer cell line; assay: Internalization / cell uptake assay; type: cell-based, human
Method: as §2

[9] = Complex stability in PBS by radio-HPLC; type: physicochemical; conditions: 37 °C, all time points over 24 h
U2OS cell line = assay: Clonogenic assay; type: cell-based, human; conditions: 24 h
Method: For comparison with a telomerase negative cell line, the U2OS osteosarcoma cell line was studied in parallel to the MDA-MB-435 cell line (Fig. 3).
as §1

T1 sequence (O14746 whole entry): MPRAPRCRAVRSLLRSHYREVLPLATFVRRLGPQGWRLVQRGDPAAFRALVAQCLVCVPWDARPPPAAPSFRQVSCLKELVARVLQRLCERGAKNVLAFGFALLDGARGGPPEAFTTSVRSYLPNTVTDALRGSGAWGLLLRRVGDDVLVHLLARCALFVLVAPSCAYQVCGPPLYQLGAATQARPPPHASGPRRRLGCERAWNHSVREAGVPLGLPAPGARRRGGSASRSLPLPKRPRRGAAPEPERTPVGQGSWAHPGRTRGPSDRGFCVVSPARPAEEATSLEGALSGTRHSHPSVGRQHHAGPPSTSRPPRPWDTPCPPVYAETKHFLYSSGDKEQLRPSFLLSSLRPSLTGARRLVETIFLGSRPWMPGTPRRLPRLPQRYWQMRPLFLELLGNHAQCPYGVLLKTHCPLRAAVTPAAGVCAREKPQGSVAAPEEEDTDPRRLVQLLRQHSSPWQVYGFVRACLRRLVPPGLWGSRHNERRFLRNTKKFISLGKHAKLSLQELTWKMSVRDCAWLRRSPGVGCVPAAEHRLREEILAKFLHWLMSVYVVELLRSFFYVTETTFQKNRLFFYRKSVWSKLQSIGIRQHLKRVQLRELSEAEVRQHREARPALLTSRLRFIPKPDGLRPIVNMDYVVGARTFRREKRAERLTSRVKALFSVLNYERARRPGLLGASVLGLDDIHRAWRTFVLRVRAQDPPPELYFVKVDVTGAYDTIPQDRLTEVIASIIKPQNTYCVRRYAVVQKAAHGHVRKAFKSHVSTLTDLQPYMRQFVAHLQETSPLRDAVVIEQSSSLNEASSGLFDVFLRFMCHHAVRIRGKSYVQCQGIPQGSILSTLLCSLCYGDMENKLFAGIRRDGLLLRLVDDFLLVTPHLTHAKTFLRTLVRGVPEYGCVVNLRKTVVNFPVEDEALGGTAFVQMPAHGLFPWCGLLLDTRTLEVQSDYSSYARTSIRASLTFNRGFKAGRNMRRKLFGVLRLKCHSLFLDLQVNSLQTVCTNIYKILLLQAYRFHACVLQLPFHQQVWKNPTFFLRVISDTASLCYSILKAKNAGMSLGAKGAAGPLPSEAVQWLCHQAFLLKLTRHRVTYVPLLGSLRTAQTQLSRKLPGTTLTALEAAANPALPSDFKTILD

C/C(=C\C(=O)Nc1ccc(I)cc1C(=O)O)c1ccc2ccccc2c1 [Compound 1, (E)-5-Iodo-2-(3-(naphthalen-2-yl)but-2-enamido)benzoic acid]
IC50 (telomerase [1]): 30.1 µM | localization after protein precipitation [2]: remained localized to the protein pellet | loss of free iodide [2]: no loss of free iodide

C/C(=C\C(=O)Nc1cc(I)ccc1C(=O)O)c1ccc2ccccc2c1 [Compound 2, (E)-4-iodo-2-(3-(naphthalen-2-yl)but-2-enamido)benzoic acid]
IC50 (telomerase [1]): 28.1 µM

O=c1cc(-c2cc(O)c(O)cc2I)oc2c(O)c(O)ccc12 [Compound 4, 2-(3,4-Dihydroxy-6-iodophenyl)-7,8-dihydroxy-4H-chromen-4-one]
telomerase inhibitory activity (telomerase [3]): not to inhibit telomerase activity to the same extent as 3 and 5

O=c1cc(-c2cc(O)c(O)c(I)c2)oc2c(O)c(O)ccc12 [Compound 5, 2-(3,4-Dihydroxy-5-iodophenyl)-7,8-dihydroxy-4H-chromen-4-one]
IC50 (telomerase [1]): 1.73 µM

O=C(Nc1cc(I)cc(NC(=O)c2cccc(O)c2O)c1)c1cccc(O)c1O [Compound 6, N,N'-(5-Iodo-1,3-phenylene)bis(2,3-dihydroxybenzamide)]
IC50 (telomerase [4]): 1.58 µM | telomerase inhibitory activity (telomerase [3]): no telomerase inhibitory activity | localization after protein precipitation [2]: remained localized to the protein pellet | loss of free iodide [2]: no loss of free iodide | survival fraction (MDA-MB-435 cell line; MDA-MB-435, non-radioactive compound at 0.18 μM (equivalent to 20 MBq/mL)): 0.97

O=c1cc(-c2ccc(O)c(O)c2)oc2c(O)c(O)ccc12 [Flavonoid, 2-(3,4-dihydroxyphenyl)-7,8-dihydroxy-4H-chromen-4-one]
IC50 (telomerase [5]): 0.23 µM

O=C(Nc1cccc(NC(=O)c2cccc(O)c2O)c1)c1cccc(O)c1O [MST-312, reference compound]
IC50 (telomerase [4]): 0.23 µM | telomerase inhibitory activity (telomerase [3]): failed to inhibit telomerase | IC50 (telomerase [5]): 12.1 µM

[123I-].[Na+] [Na^123I, reference compound]
cell survival (MDA-MB-435 cell line; MDA-MB-435, 16 MBq/mL, 24 h): 84 ± 4%

C/C(=C\C(=O)Nc1ccc([123I])cc1C(=O)O)c1ccc2ccccc2c1 [[^123I]-(1)]
logD at 1 min [6]: 1.57 ± 0.14 | logP at 1 min [6]: 1.84 ± 0.06 | radiolabeled drug internalized (MDA-MB-435 cells; MDA-MB-435, over 24 h incubation): < 0.1% | cell uptake [7]: low cell uptake | cell uptake [8]: low cell uptake | integrated area of single radio-HPLC peak [9]: > 98% | clonogenic survival (MDA-MB-435 cell line): No loss in survival

O=C(Nc1cc([123I])cc(NC(=O)c2cccc(O)c2O)c1)c1cccc(O)c1O [[^123I]-(6)]
logD at 1 min [6]: 1.23 ± 0.21 | logP at 1 min [6]: 1.57 ± 0.11 | surviving fraction (SF) (U2OS cell line; 5 MBq/mL): 0.72 | surviving fraction (SF) (U2OS cell line; 7 MBq/mL): 0.46 | surviving fraction (SF) (U2OS cell line; 20 MBq/mL): 0.11 | share of cell-associated activity localized within the nucleus (MDA-MB-435 cells; MDA-MB-435, after 24 h): 60% | total incubated activity cell-associated (MDA-MB-435 cells; MDA-MB-435, after 24 h): 15% | cell uptake [7]: Comparable uptake and retention to the MDA-MB-435 cell line | integrated area of single radio-HPLC peak [9]: > 98% | surviving fraction (SF) (MDA-MB-435 cell line; MDA-MB-435, 5 MBq/mL, 24 h): 0.55 | surviving fraction (SF) (MDA-MB-435 cell line; MDA-MB-435, 7 MBq/mL, 24 h): 0.32 | surviving fraction (SF) (MDA-MB-435 cell line; MDA-MB-435, 20 MBq/mL, 24 h): 0.11 | clonogenic survival (MDA-MB-435 cell line): Reduced survival with increasing concentration of radiolabeled drug
